Experimental findings from ChEMBL document CHEMBL5550100, “Discovery of LHF418 as a new potent SOS1 PROTAC degrader” (Bioorg Med Chem, 2024) are described below.

What all share (assay type): cell-based
Assay [1] deals with T1, Protein cereblon/Son of sevenless homolog 1 (Homo sapiens, UniProt Q07889+Q96SW2). Kind of assay: PROTAC activity at CRBN/SOS1 in human A549 cells assessed as protein degradation at 10 uM incubated for 24 hrs by immunoblot analysis relative to control. For orientation: In western blotting, separated proteins are transferred to a membrane and probed.
T1 sequence (Q07889 whole entry, looked up): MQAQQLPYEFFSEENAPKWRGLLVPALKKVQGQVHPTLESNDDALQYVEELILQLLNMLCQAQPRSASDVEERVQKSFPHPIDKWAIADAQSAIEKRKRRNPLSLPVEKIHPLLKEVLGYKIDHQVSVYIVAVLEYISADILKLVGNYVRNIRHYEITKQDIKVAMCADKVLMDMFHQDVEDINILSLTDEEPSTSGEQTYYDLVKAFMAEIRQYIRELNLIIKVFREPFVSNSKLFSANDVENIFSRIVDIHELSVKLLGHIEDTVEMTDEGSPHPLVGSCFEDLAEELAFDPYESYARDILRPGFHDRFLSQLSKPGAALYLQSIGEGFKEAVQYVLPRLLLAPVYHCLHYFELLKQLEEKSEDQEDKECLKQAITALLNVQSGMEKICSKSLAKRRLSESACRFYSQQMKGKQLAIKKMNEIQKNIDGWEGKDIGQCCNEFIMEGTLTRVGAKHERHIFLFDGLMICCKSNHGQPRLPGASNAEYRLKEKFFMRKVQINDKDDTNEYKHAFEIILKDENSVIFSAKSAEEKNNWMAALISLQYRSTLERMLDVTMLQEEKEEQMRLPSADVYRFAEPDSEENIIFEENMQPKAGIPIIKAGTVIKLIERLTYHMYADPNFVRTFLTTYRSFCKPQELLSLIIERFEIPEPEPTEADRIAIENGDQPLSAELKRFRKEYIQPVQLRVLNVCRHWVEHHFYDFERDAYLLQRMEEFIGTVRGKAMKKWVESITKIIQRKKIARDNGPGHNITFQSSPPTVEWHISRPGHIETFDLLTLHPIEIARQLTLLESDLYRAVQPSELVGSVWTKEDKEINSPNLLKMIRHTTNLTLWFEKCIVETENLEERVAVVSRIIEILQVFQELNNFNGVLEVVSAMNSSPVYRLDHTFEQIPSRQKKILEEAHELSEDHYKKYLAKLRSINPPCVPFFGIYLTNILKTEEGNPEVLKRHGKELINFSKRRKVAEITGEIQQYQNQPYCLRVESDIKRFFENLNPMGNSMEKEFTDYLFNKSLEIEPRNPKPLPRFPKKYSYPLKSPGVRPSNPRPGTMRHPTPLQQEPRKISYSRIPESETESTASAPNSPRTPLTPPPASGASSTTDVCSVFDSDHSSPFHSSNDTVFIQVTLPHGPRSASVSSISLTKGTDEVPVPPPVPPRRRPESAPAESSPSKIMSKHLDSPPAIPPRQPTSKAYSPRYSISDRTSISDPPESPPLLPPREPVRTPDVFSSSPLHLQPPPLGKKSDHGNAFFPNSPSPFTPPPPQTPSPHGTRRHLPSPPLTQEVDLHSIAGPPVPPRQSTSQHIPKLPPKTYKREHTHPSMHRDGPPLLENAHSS
T1 sequence (Q96SW2 whole entry, looked up): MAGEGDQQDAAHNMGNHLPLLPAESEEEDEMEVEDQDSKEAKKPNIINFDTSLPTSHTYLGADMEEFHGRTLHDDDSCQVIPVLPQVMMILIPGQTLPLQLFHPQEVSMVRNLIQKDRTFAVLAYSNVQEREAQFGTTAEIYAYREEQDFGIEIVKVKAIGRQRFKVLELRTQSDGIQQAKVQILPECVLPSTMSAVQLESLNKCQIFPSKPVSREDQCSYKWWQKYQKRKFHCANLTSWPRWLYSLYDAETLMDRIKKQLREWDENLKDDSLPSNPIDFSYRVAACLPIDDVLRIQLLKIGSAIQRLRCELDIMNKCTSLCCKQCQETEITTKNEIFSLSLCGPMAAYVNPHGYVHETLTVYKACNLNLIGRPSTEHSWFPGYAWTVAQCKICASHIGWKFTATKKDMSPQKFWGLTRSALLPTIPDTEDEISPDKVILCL
Assay [2] addresses T1, Protein cereblon/Son of sevenless homolog 1. Kind of assay: PROTAC activity at CRBN/SOS1 in human A549 cells assessed as protein degradation at 0.1 uM incubated for 24 hrs by immunoblot analysis relative to control.
Assay [3] has the same target. Kind of assay: PROTAC activity at CRBN/SOS1 in human A549 cells assessed as protein degradation at 1 uM incubated for 24 hrs by immunoblot analysis relative to control.

Consider `COc1cc2nc(C)nc(N[C@H](C)c3cc(N)cc(C(F)(F)F)c3)c2cc1O[C@H]1CCN(C(=O)CCCCCCC(=O)Nc2cccc3c2C(=O)N(C2CCC(=O)NC2=O)C3)C1` (some centres not stated), for which the values for the Activity in assay [1], in assay [2] and in assay [3] were 3.7%, 2.6% and 0%, respectively.

Take `COc1cc2nc(C)nc(N[C@H](C)c3cc(N)cc(C(F)(F)F)c3)c2cc1O[C@H]1CCN(C(=O)CCCCCNc2ccc3c(c2)C(=O)N(C2CCC(=O)NC2=O)C3=O)C1` (some centres not stated): the Activity in assay [1] turned out to be 19.3%; in assay [2] it was 5.6%; in assay [3] it was 11.9%.

On to `COc1cc2nc(C)nc(N[C@H](C)c3cc(N)cc(C(F)(F)F)c3)c2cc1O[C@H]1CCN(C(=O)CCCCCCCNc2ccc3c(c2)C(=O)N(C2CCC(=O)NC2=O)C3=O)C1` (some centres not stated), for which the Activity in assay [1] stood at 42.9%; in assay [2], 6.6%; in assay [3], 20.9%.

`COc1cc2nc(C)nc(N[C@H](C)c3cc(N)cc(C(F)(F)F)c3)c2cc1O[C@H]1CCN(C(=O)CCCCCCCNc2cccc3c2C(=O)N(C2CCC(=O)NC2=O)C3=O)C1` (some centres not stated): the Activity was found to be 6.1% in assay [1], 15.3% in assay [2] and 13% in assay [3].

Turning to `COc1cc2nc(C)nc(N[C@H](C)c3cc(N)cc(C(F)(F)F)c3)c2cc1O[C@H]1CCN(C(=O)CC(=O)Nc2ccc3c(c2)CN(C2CCC(=O)NC2=O)C3=O)C1` (some centres not stated), the Activity stood at 9.3% in assay [1], 0% in assay [2] and 4% in assay [3].

`COc1cc2nc(C)nc(N[C@H](C)c3cc(N)cc(C(F)(F)F)c3)c2cc1O[C@H]1CCN(C(=O)CC(=O)Nc2cccc3c2C(=O)N(C2CCC(=O)NC2=O)C3)C1` (some centres not stated): the Activity came to 9.2% in assay [1], 0% in assay [2] and 11.6% in assay [3].

`COc1cc2nc(C)nc(N[C@H](C)c3cc(N)cc(C(F)(F)F)c3)c2cc1O[C@H]1CCN(C(=O)CCCCCCCCC(=O)Nc2cccc3c2CN(C2CCC(=O)NC2=O)C3=O)C1` (some centres not stated): the Activity in assay [1] was found to be 26.1%; in assay [2], 11.4%; in assay [3], 39.1%.

Take `COc1cc2nc(C)nc(N[C@H](C)c3cc(N)cc(C(F)(F)F)c3)c2cc1O[C@H]1CCN(C(=O)CCCCCCC(=O)Nc2cccc3c2CN(C2CCC(=O)NC2=O)C3=O)C1` (some centres not stated): the Activity in assay [1] is 65.4%; in assay [2] it was 2.1%; in assay [3], 31.9%.

For `COc1cc2nc(C)nc(N[C@H](C)c3cc(N)cc(C(F)(F)F)c3)c2cc1O[C@H]1CCN(C(=O)CCCCC(=O)Nc2cccc3c2C(=O)N(C2CCC(=O)NC2=O)C3)C1` (some centres not stated), the Activity is 10.2% in assay [1], 5.6% in assay [2] and 1.6% in assay [3].

Consider `COc1cc2nc(C)nc(N[C@H](C)c3cc(N)cc(C(F)(F)F)c3)c2cc1O[C@H]1CCN(C(=O)CCCCC(=O)Nc2cccc3c2CN(C2CCC(=O)NC2=O)C3=O)C1` (some centres not stated), for which the Activity in assay [1] was 0%; in assay [2], 1.8%; in assay [3], 0%.

With `COc1cc2nc(C)nc(N[C@H](C)c3cc(N)cc(C(F)(F)F)c3)c2cc1O[C@H]1CCN(C(=O)CCCCCCCCC(=O)Nc2ccc3c(c2)C(=O)N(C2CCC(=O)NC2=O)C3)C1` (some centres not stated), the Activity in assay [1] worked out at 0.6%; in assay [2], 0%; in assay [3], 2.5%.

Consider `COc1cc2nc(C)nc(N[C@H](C)c3cc(N)cc(C(F)(F)F)c3)c2cc1O[C@H]1CCN(C(=O)CCCCCCCCCNc2ccc3c(c2)C(=O)N(C2CCC(=O)NC2=O)C3=O)C1` (some centres not stated), for which the Activity in assay [1], in assay [2] and in assay [3] was 0% in each case.

Consider `COc1cc2nc(C)nc(N[C@H](C)c3cc(N)cc(C(F)(F)F)c3)c2cc1O[C@H]1CCN(C(=O)CCC(=O)Nc2ccc3c(c2)CN(C2CCC(=O)NC2=O)C3=O)C1` (some centres not stated), for which the values for the Activity in assay [1], in assay [2] and in assay [3] were 2.4%, 0% and 0%, respectively.

Turning to `COc1cc2nc(C)nc(N[C@H](C)c3cc(N)cc(C(F)(F)F)c3)c2cc1O[C@H]1CCN(C(=O)CCC(=O)Nc2ccc3c(c2)C(=O)N(C2CCC(=O)NC2=O)C3)C1` (some centres not stated), the Activity in assay [1] was 35.6%; in assay [2], 13.7%; in assay [3] it was 20%.
